{"source": "PubChem BioAssay AID2060501", "about": "(Molecular Pharmacology Branch, DTP, NCI, 2025);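 note: spheroids exposed to compounds for 7 days before readout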;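 for viability, T/C: percent of vehicle DMSO control viability with 100% = untreated-like growth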", "system": "282377-053-R-J1-PDC complex spheroids, viability", "experiment": "Anticancer human tumor 282377-053-R-J1-PDC patient-derived colon adenocarcinoma cell line growth inhibition [GQUAD]", "details": "for IC50: curve of first compound; for viability, T/C: stronger effect = lower value", "outline": "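Multi-cell-type spheroids of tumor cells with HUVEC and mesenchymal stem cells, treated with drug combinations. Concentrations descend in half-log steps from near clinical Cmax, or from 10 microM where Cmax is unknown; viability read-out.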"}
{"smiles": "CC(C)(O)C1CCC(Nc2ccc3ncc(-c4cccc(C(F)(F)F)c4)n3n2)CC1", "note": "(configuration not stated) + Cc1[nH]c2ccc(F)cc2c1-c1nc2c3cccnc3c3ncccc3c2[nH]1", "values": [{"measurement": "IC50", "setting": "second compound 0.0316 µM", "value": "> 10", "unit": "µM"}, {"measurement": "IC50", "setting": "second compound 0.1 µM", "value": "> 10", "unit": "µM"}, {"measurement": "IC50", "setting": "second compound 0.316 µM", "value": "> 10", "unit": "µM"}, {"measurement": "IC50", "setting": "second compound 1 µM", "value": "> 10", "unit": "µM"}, {"measurement": "IC50", "setting": "second compound 3.16 µM", "value": "> 10", "unit": "µM"}, {"measurement": "IC50", "setting": "second compound 10 µM", "value": 2.9, "unit": "µM"}, {"measurement": "viability, T/C", "setting": "second compound 0.0316 µM, first compound 0.0316 µM", "value": 107, "unit": "%"}, {"measurement": "viability, T/C", "setting": "second compound 0.0316 µM, first compound 0.1 µM", "value": 95.9, "unit": "%"}, {"measurement": "viability, T/C", "setting": "second compound 0.0316 µM, first compound 0.316 µM", "value": 114, "unit": "%"}, {"measurement": "viability, T/C", "setting": "second compound 0.0316 µM, first compound 1 µM", "value": 103, "unit": "%"}, {"measurement": "viability, T/C", "setting": "second compound 0.0316 µM, first compound 3.16 µM", "value": 86.1, "unit": "%"}, {"measurement": "viability, T/C", "setting": "second compound 0.0316 µM, first compound 10 µM", "value": 76.9, "unit": "%"}, {"measurement": "viability, T/C", "setting": "second compound 0.1 µM, first compound 0.0316 µM", "value": 122, "unit": "%"}, {"measurement": "viability, T/C", "setting": "second compound 0.1 µM, first compound 0.1 µM", "value": 103, "unit": "%"}, {"measurement": "viability, T/C", "setting": "second compound 0.1 µM, first compound 0.316 µM", "value": 91.5, "unit": "%"}, {"measurement": "viability, T/C", "setting": "second compound 0.1 µM, first compound 1 µM", "value": 95.3, "unit": "%"}, {"measurement": "viability, T/C", "setting": "second compound 0.1 µM, first compound 3.16 µM", "value": 103, "unit": "%"}, {"measurement": "viability, T/C", "setting": "second compound 0.1 µM, first compound 10 µM", "value": 73.3, "unit": "%"}, {"measurement": "viability, T/C", "setting": "second compound 0.316 µM, first compound 0.0316 µM", "value": 107, "unit": "%"}, {"measurement": "viability, T/C", "setting": "second compound 0.316 µM, first compound 0.1 µM", "value": 96.7, "unit": "%"}, {"measurement": "viability, T/C", "setting": "second compound 0.316 µM, first compound 0.316 µM", "value": 87.7, "unit": "%"}, {"measurement": "viability, T/C", "setting": "second compound 0.316 µM, first compound 1 µM", "value": 95.1, "unit": "%"}, {"measurement": "viability, T/C", "setting": "second compound 0.316 µM, first compound 3.16 µM", "value": 103, "unit": "%"}, {"measurement": "viability, T/C", "setting": "second compound 0.316 µM, first compound 10 µM", "value": 91.9, "unit": "%"}, {"measurement": "viability, T/C", "setting": "second compound 1 µM, first compound 0.0316 µM", "value": 115, "unit": "%"}, {"measurement": "viability, T/C", "setting": "second compound 1 µM, first compound 0.1 µM", "value": 95.8, "unit": "%"}, {"measurement": "viability, T/C", "setting": "second compound 1 µM, first compound 0.316 µM", "value": 88.8, "unit": "%"}, {"measurement": "viability, T/C", "setting": "second compound 1 µM, first compound 1 µM", "value": 118, "unit": "%"}, {"measurement": "viability, T/C", "setting": "second compound 1 µM, first compound 3.16 µM", "value": 81.4, "unit": "%"}, {"measurement": "viability, T/C", "setting": "second compound 1 µM, first compound 10 µM", "value": 92.3, "unit": "%"}, {"measurement": "viability, T/C", "setting": "second compound 3.16 µM, first compound 0.0316 µM", "value": 88.8, "unit": "%"}, {"measurement": "viability, T/C", "setting": "second compound 3.16 µM, first compound 0.1 µM", "value": 71.1, "unit": "%"}, {"measurement": "viability, T/C", "setting": "second compound 3.16 µM, first compound 0.316 µM", "value": 70.7, "unit": "%"}, {"measurement": "viability, T/C", "setting": "second compound 3.16 µM, first compound 1 µM", "value": 79.2, "unit": "%"}, {"measurement": "viability, T/C", "setting": "second compound 3.16 µM, first compound 3.16 µM", "value": 100, "unit": "%"}, {"measurement": "viability, T/C", "setting": "second compound 3.16 µM, first compound 10 µM", "value": 63.1, "unit": "%"}, {"measurement": "viability, T/C", "setting": "second compound 10 µM, first compound 0.0316 µM", "value": 61.9, "unit": "%"}, {"measurement": "viability, T/C", "setting": "second compound 10 µM, first compound 0.1 µM", "value": 51.5, "unit": "%"}, {"measurement": "viability, T/C", "setting": "second compound 10 µM, first compound 0.316 µM", "value": 75.6, "unit": "%"}, {"measurement": "viability, T/C", "setting": "second compound 10 µM, first compound 1 µM", "value": 48.4, "unit": "%"}, {"measurement": "viability, T/C", "setting": "second compound 10 µM, first compound 3.16 µM", "value": 46.9, "unit": "%"}, {"measurement": "viability, T/C", "setting": "second compound 10 µM, first compound 10 µM", "value": 42.7, "unit": "%"}]}
